According to ChEMBL document CHEMBL1151930, “Physicochemical determinants of human renal clearance” (J Med Chem, 2009):

test: clinical; conditions: human, in vivo

Row | Structure (SMILES) | CL renal
1 | CC[C@@]1(O)C(=O)OCc2c1cc1n(c2=O)Cc2c-1nc1ccccc1c2N | 0.56 mL/min/kg
2 | N[C@@H](Cc1ccc(N(CCCl)CCCl)cc1)C(=O)O | 0.91 mL/min/kg
3 | CC(=O)O[C@H]1C(=O)[C@@]2(C)[C@H]([C@H](OC(=O)c3ccccc3)[C@]3(O)C[C@H](OC(=O)[C@H](O)[C@@H](NC(=O)c4ccccc4)c4ccccc4)C(C)=C1C3(C)C)[C@]1(OC(C)=O)CO[C@@H]1C[C@@H]2O [PACLITAXEL] | 0.64 mL/min/kg
4 | Nc1nc2c(ncn2CCC(CO)CO)c(=O)[nH]1 [PENCICLOVIR] | 6.7 mL/min/kg
5 | CC1(C)S[C@@H]2[C@H](NC(=O)Cc3ccccc3)C(=O)N2[C@H]1C(=O)O [PENICILLIN G] | 5 mL/min/kg
6 | CC1(C)S[C@@H]2[C@H](NC(=O)COc3ccccc3)C(=O)N2[C@H]1C(=O)O [PENICILLIN V] | 1.74 mL/min/kg
7 | OCCN1CCN(CCCN2c3ccccc3Sc3ccc(Cl)cc32)CC1 [PERPHENAZINE] | 5 mL/min/kg
8 | c1ccc(C2(N3CCCCC3)CCCCC2)cc1 [PHENCYCLIDINE] | 0.82 mL/min/kg
9 | CCC1(c2ccccc2)C(=O)NC(=O)NC1=O [PHENOBARBITAL] | 0.02 mL/min/kg
10 | NS(=O)(=O)c1cc(C(=O)O)cc(N2CCCC2)c1Oc1ccccc1 [PIRETANIDE] | 1.05 mL/min/kg
11 | CC1CCCC(C)N1CCCC(O)(c1ccccc1)c1ccccn1 (stereo unspecified) [PIRMENOL] | 0.72 mL/min/kg
12 | CC[C@H](C)C(=O)O[C@H]1C[C@H](O)C=C2C=C[C@H](C)[C@H](CC[C@@H](O)C[C@@H](O)CC(=O)O)[C@H]21 [PRAVASTATIN] | 6.3 mL/min/kg
13 | C[C@]12C=CC(=O)C=C1CC[C@@H]1[C@@H]2[C@@H](O)C[C@@]2(C)[C@H]1CC[C@]2(O)C(=O)CO [PREDNISOLONE] | 0.6 mL/min/kg
14 | C[C@]12C=CC(=O)C=C1CC[C@@H]1[C@@H]2C(=O)C[C@@]2(C)[C@H]1CC[C@]2(O)C(=O)CO [PREDNISONE] | 0.05 mL/min/kg
15 | CCCN(CCC)S(=O)(=O)c1ccc(C(=O)O)cc1 [PROBENECID] | 0.03 mL/min/kg
16 | CC(CN1c2ccccc2Sc2ccccc21)N(C)C (stereo unspecified) [PROMETHAZINE] | 0.14 mL/min/kg
17 | CC(C)NCC(O)COc1cccc2ccccc12 (stereo unspecified) [PROPRANOLOL] | 1.2 mL/min/kg
18 | CCCc1cc(=O)[nH]c(=S)[nH]1 [PROPYLTHIOURACIL] | 0.04 mL/min/kg
19 | CN(C)C(=O)Oc1ccc[n+](C)c1 [PYRIDOSTIGMINE] | 7.2 mL/min/kg
20 | CCOc1ccccc1OC(c1ccccc1)C1CNCCO1 (stereo unspecified) [REBOXETINE] | 0.04 mL/min/kg
21 | CCN1CCC[C@H]1CNC(=O)c1c(OC)ccc(Br)c1OC [REMOXIPRIDE] | 0.44 mL/min/kg
22 | CCOc1cc(CC(=O)N[C@@H](CC(C)C)c2ccccc2N2CCCCC2)ccc1C(=O)O [REPAGLINIDE] | 0.12 mL/min/kg
23 | NC(=O)c1ncn([C@@H]2O[C@H](CO)[C@@H](O)[C@H]2O)n1 [RIBAVIRIN] | 1.7 mL/min/kg
24 | CO[C@H]1/C=C/O[C@@]2(C)Oc3c(C)c(O)c4c(c3C2=O)C2=NC3(CCN(CC(C)C)CC3)NC2=C(NC(=O)/C(C)=C\C=C\[C@H](C)[C@H](O)[C@@H](C)[C@@H](O)[C@@H](C)[C@H](OC(C)=O)[C@@H]1C)C4=O [RIFABUTIN] | 0.4 mL/min/kg
25 | O=P(O)(O)C(O)(Cc1cccnc1)P(=O)(O)O [RISEDRONIC ACID] | 1.31 mL/min/kg

Row | Structure (SMILES) | CL renal
26 | Cc1nc2n(c(=O)c1CCN1CCC(c3noc4cc(F)ccc34)CC1)CCCC2 [RISPERIDONE] | 0.18 mL/min/kg
27 | CCN(C)C(=O)Oc1cccc([C@H](C)N(C)C)c1 [RIVASTIGMINE] | 0.12 mL/min/kg
28 | CC(C)c1nc(N(C)S(C)(=O)=O)nc(-c2ccc(F)cc2)c1/C=C/[C@@H](O)C[C@@H](O)CC(=O)O [ROSUVASTATIN] | 3.3 mL/min/kg
29 | CCN(CC)CCNC(=O)c1ccc(NS(C)(=O)=O)cc1 [SEMATILIDE] | 3.5 mL/min/kg
30 | N[C@@H]1CN(c2c(F)cc3c(=O)c(C(=O)O)cn([C@@H]4C[C@@H]4F)c3c2Cl)CC12CC2 [SITAFLOXACIN ANHYDROUS] | 2.8 mL/min/kg
31 | C[C@@H]1CN(c2c(F)c(N)c3c(=O)c(C(=O)O)cn(C4CC4)c3c2F)C[C@H](C)N1 [SPARFLOXACIN] | 0.4 mL/min/kg
32 | Cc1cn([C@H]2C=C[C@@H](CO)O2)c(=O)[nH]c1=O [STAVUDINE] | 3.53 mL/min/kg
33 | CC1(C)S[C@@H]2[C@H](NC(=O)C(c3ccccc3)S(=O)(=O)O)C(=O)N2[C@H]1C(=O)O (stereo partly specified) [SULBENICILLIN] | 1.3 mL/min/kg
34 | Nc1ccc(S(=O)(=O)Nc2ncccn2)cc1 [SULFADIAZINE] | 0.34 mL/min/kg
35 | CC(C(=O)O)c1ccc(C(=O)c2cccs2)cc1 (stereo unspecified) [SUPROFEN] | 0.04 mL/min/kg
36 | Nc1c2c(nc3ccccc13)CCCC2 [TACRINE] | 1.68 mL/min/kg
37 | CC(C)(C)NCC(O)COc1ccc(NC(=O)NC2CCCCC2)cc1 (stereo unspecified) [TALINOLOL] | 2.6 mL/min/kg
38 | CCOc1ccccc1OCCN[C@H](C)Cc1ccc(OC)c(S(N)(=O)=O)c1 [TAMSULOSIN] | 0.08 mL/min/kg
39 | CCCCCNC(=N)N/N=C/c1c[nH]c2ccc(OC)cc12 [TEGASEROD] | 0.36 mL/min/kg
40 | CC[C@H]1OC(=O)[C@H](C)C(=O)[C@H](C)[C@@H](O[C@@H]2O[C@H](C)C[C@H](N(C)C)[C@H]2O)[C@](C)(OC)C[C@@H](C)C(=O)[C@H](C)[C@H]2N(CCCCn3cnc(-c4cccnc4)c3)C(=O)O[C@]12C [TELITHROMYCIN] | 3.14 mL/min/kg
41 | COc1cc([C@@H]2c3cc4c(cc3[C@@H](O[C@@H]3O[C@@H]5CO[C@@H](c6cccs6)O[C@H]5[C@H](O)[C@H]3O)[C@H]3COC(=O)[C@H]23)OCO4)cc(OC)c1O [TENIPOSIDE] | 0.02 mL/min/kg
42 | C[C@H](Cn1cnc2c(N)ncnc21)OCP(=O)(O)O [TENOFOVIR ANHYDROUS] | 2.7 mL/min/kg
43 | COc1cc2nc(N3CCN(C(=O)C4CCCO4)CC3)nc(N)c2cc1OC (stereo unspecified) [TERAZOSIN] | 0.13 mL/min/kg
44 | CC(C)(C)NCC(O)c1cc(O)cc(O)c1 (stereo unspecified) [TERBUTALINE] | 2.2 mL/min/kg
45 | CC(CC(c1ccccc1)c1ccccc1)NC(C)(C)C (stereo unspecified) [TERODILINE] | 0.14 mL/min/kg
46 | CCO[C@@H](Cc1ccc(OCCc2ccc(OS(C)(=O)=O)cc2)cc1)C(=O)O [TESAGLITAZAR] | 0.01 mL/min/kg
47 | CN(C)[C@@H]1C(O)=C(C(N)=O)C(=O)[C@@]2(O)C(O)=C3C(=O)c4c(O)cccc4[C@@](C)(O)[C@H]3C[C@@H]12 [TETRACYCLINE] | 0.9 mL/min/kg
48 | Cn1c(=O)c2[nH]cnc2n(C)c1=O.O [THEOPHYLLINE] | 0.09 mL/min/kg
49 | CCCC(C)C1(CC)C(=O)NC(=S)NC1=O (stereo unspecified) [THIOPENTAL] | 0.08 mL/min/kg
50 | S=P(N1CC1)(N1CC1)N1CC1 [THIOTEPA] | 0.03 mL/min/kg

Row | Structure (SMILES) | CL renal
51 | Cc1ccsc1C(=CCCN1CCC[C@@H](C(=O)O)C1)c1sccc1C [TIAGABINE] | 0.03 mL/min/kg
52 | CN(C)c1cc(NC(=O)CNC(C)(C)C)c(O)c2c1C[C@H]1C[C@H]3[C@H](N(C)C)C(O)=C(C(N)=O)C(=O)[C@@]3(O)C(O)=C1C2=O [TIGECYCLINE] | 0.57 mL/min/kg
53 | CCOC(=O)C1(c2ccccc2)CCC=CC1N(C)C (stereo unspecified) [TILIDINE] | 0.26 mL/min/kg
54 | CC(C)(C)NC[C@H](O)COc1nsnc1N1CCOCC1 [TIMOLOL] | 1.4 mL/min/kg
55 | Clc1ccc2nsnc2c1NC1=NCCN1 [TIZANIDINE] | 0.33 mL/min/kg
56 | NC[C@H]1O[C@H](O[C@H]2[C@H](O)[C@@H](O[C@H]3O[C@H](CO)[C@@H](O)[C@H](N)[C@H]3O)[C@H](N)C[C@@H]2N)[C@H](N)C[C@@H]1O [TOBRAMYCIN] | 1.19 mL/min/kg
57 | Cc1cccc(C)c1NC(=O)C(C)N (stereo unspecified) [TOCAINIDE] | 0.8 mL/min/kg
58 | Cc1cccc(N2CC(CO)OC2=O)c1 (stereo unspecified) [TOLOXATONE] | 0.11 mL/min/kg
59 | C[C@@H](O)[C@H]1C(=O)N2C(C(=O)O)=C(S[C@H]3C[C@@H](C(=O)N4CC[C@H](NC(=O)CNC(=N)N)C4)N(C)C3)[C@H](C)[C@H]12 [TOMOPENEM] | 1.14 mL/min/kg
60 | CC[C@@]1(O)C(=O)OCc2c1cc1n(c2=O)Cc2cc3c(CN(C)C)c(O)ccc3nc2-1 [TOPOTECAN] | 5.2 mL/min/kg
61 | Cc1cccc(Nc2ccncc2S(=O)(=O)NC(=O)NC(C)C)c1 [TORSEMIDE] | 0.13 mL/min/kg
62 | COc1cccc(C2(O)CCCCC2CN(C)C)c1 (stereo unspecified) [TRAMADOL] | 0.98 mL/min/kg
63 | C[C@@H]([C@@H](O)c1ccc(O)cc1)N1CCC(O)(c2ccccc2)CC1 [TRAXOPRODIL] | 1.92 mL/min/kg
64 | COc1cc(NCc2ccc3nc(N)nc(N)c3c2C)cc(OC)c1OC [TRIMETREXATE] | 0.14 mL/min/kg
65 | CN[C@H](CC(C)C)C(=O)N[C@H]1C(=O)N[C@@H](CC(N)=O)C(=O)N[C@H]2C(=O)N[C@H]3C(=O)N[C@H](C(=O)N[C@H](C(=O)O)c4cc(O)cc(O)c4-c4cc3ccc4O)[C@H](O)c3ccc(c(Cl)c3)Oc3cc2cc(c3O[C@@H]2O[C@H](CO)[C@@H](O)[C@H](O)[C@H]2O[C@H]2C[C@](C)(N)[C@H](O)[C@H](C)O2)Oc2ccc(cc2Cl)[C@H]1O [VANCOMYCIN] | 1.03 mL/min/kg
66 | COc1ccc(C(CN(C)C)C2(O)CCCCC2)cc1 (stereo unspecified) [VENLAFAXINE] | 0.64 mL/min/kg
67 | CC[C@]1(O)C[C@@H]2CN(CCc3c([nH]c4ccccc34)[C@@](C(=O)OC)(c3cc4c(cc3OC)N(C)[C@H]3[C@@](O)(C(=O)OC)[C@H](OC(C)=O)[C@]5(CC)C=CCN6CC[C@]43[C@@H]65)C2)C1 [VINBLASTINE] | 2.64 mL/min/kg
68 | CC(=O)N[C@H]1[C@H]([C@H](O)[C@H](O)CO)OC(C(=O)O)=C[C@@H]1N=C(N)N [ZANAMIVIR] | 1.39 mL/min/kg
69 | Cc1cn([C@H]2C[C@H](N=[N+]=[N-])[C@@H](CO)O2)c(=O)[nH]c1=O [ZIDOVUDINE] | 5.67 mL/min/kg
70 | O=C1Cc2cc(CCN3CCN(c4nsc5ccccc45)CC3)c(Cl)cc2N1 [ZIPRASIDONE] | 0.05 mL/min/kg
71 | O.O=P(O)(O)C(O)(Cn1ccnc1)P(=O)(O)O [ZOLEDRONIC ACID] | 0.79 mL/min/kg
72 | CN(C)CCc1c[nH]c2ccc(C[C@H]3COC(=O)N3)cc12 [ZOLMITRIPTAN] | 2.2 mL/min/kg
73 | Cc1ccc(-c2nc3ccc(C)cn3c2CC(=O)N(C)C)cc1 [ZOLPIDEM] | 0.04 mL/min/kg
74 | CN1CCN(C(=O)OC2c3nccnc3C(=O)N2c2ccc(Cl)cn2)CC1 (stereo unspecified) [ZOPICLONE] | 0.1 mL/min/kg

test: Total body clearance in human; conditions: in vivo

Row | Structure (SMILES) | clearance
75 | CC[C@@]1(O)C(=O)OCc2c1cc1n(c2=O)Cc2c-1nc1ccccc1c2N | 6.5 mL/min/kg
76 | N[C@@H](Cc1ccc(N(CCCl)CCCl)cc1)C(=O)O | 7 mL/min/kg
77 | O=P1(N(CCCl)CCCl)NCCCO1 (stereo unspecified) [CYCLOPHOSPHAMIDE ANHYDROUS] | 1.1 mL/min/kg
78 | CCC1=C(C)CN(C(=O)NCCc2ccc(S(=O)(=O)NC(=O)N[C@H]3CC[C@H](C)CC3)cc2)C1=O [GLIMEPIRIDE] | 0.5 mL/min/kg
79 | Cc1cc(NC(=O)C2=C(O)c3ccccc3S(=O)(=O)N2C)no1 [ISOXICAM] | 0.07 mL/min/kg
80 | CN1C(=O)C(O)N=C(c2ccccc2Cl)c2cc(Cl)ccc21 (stereo unspecified) [LORMETAZEPAM] | 4 mL/min/kg
81 | COCCCOc1ccnc(C[S+]([O-])c2nc3ccccc3[nH]2)c1C (stereo unspecified) [RABEPRAZOLE] | 4 mL/min/kg
